Data taken from patent US20140303144A1, “COMPOUNDS AND METHODS OF TREATING HYPERTENSION” (Medivation Technologies, Inc., priority 2011, published 2014).
One block for each compound: values may come before it.

Tests used:
[1] = test system: SH-SY5Y cells; assay: Cell viability assay (MTS reduction) against 4-Br-A23187 challenge; format: cell-based; details: compound 10 nM, 4-Br-A23187 (2 μM) for 24 h, Control = 100, Vehicle = 0
Experimental: SH-SY5Y cells cultured in DMEM/F12 media supplemented with 10% FBS were seeded in 96-well microplates at 150,000 cells/cm^2. After 24 h, cells were depleted from FBS and kept in culture for 24 h before the experiment. A stock solution was prepared by dissolving the calcium ionophore 4-Br-A23187 (Calbiochem Cat. N^o 100107) in DMSO at 25 mM. Cells were then treated with 4-Br-A23187 (2 μM), hydrogen peroxide (300 μM) or the mitochondrial toxin rotenone (25 μM) in the presence of vehicle or Compound of the Invention for 24 h. Cell death was determined by measurements of LDH release according to the Cytotoxicity Detection KitPlus (Roche, Mannheim, Germany). Cell viability was determined by measuring the capacity of cells to metabolize MTS tetrazolium (MTS) according to the Cytotoxicity Detection KitPlus (Roche, Mannheim, Germany) and MTS reduction was assessed by the CellTiter 96® AQueous One Solution Cell Proliferation assay (Promega Corporation, Madison, Wis., USA). Compounds were screened at 10 nM, using DMSO as vehicle. Assay results for the experiments with Br-A23187 were presented as the MTS reduction capacity (cell viability) of untreated cells (control), 4-Br-A23187-treated cells (vehicle), and co-incubation of Br-A23187 with Compounds of the Invention treated cells and using […] (FCCP) at 10 μM for 30 min as a control. This assay assesses the ability of the test compounds to protect against cell death that was mediated by mitochondrial dysfunction. In the assay, the calcium ionophore 4-Br-A23187 was used to challenge the cells, causing calcium levels to rise in mitochondria, which leads to depolarization and cell death. Test compounds were assessed for their ability to prevent cell death in response to challenge with 4-Br-A23187.

[2] = target: T1, human recombinant adrenergic α2B receptor (Homo sapiens, UniProt P18089); assay: Adrenergic α2B radioligand binding assay ([3H]Rauwolscine); details: for inhibition at 0.1 µM / Percentage inhibition of ligand binding, Adrenergic α2B: 0.1 μM compound; for Percentage inhibition of ligand binding, Adrenergic α2B: 0.1 µM
T1 construct: expressed in transfected cells; host or cells: CHO-K1 cells
T1 sequence (P18089 1-450): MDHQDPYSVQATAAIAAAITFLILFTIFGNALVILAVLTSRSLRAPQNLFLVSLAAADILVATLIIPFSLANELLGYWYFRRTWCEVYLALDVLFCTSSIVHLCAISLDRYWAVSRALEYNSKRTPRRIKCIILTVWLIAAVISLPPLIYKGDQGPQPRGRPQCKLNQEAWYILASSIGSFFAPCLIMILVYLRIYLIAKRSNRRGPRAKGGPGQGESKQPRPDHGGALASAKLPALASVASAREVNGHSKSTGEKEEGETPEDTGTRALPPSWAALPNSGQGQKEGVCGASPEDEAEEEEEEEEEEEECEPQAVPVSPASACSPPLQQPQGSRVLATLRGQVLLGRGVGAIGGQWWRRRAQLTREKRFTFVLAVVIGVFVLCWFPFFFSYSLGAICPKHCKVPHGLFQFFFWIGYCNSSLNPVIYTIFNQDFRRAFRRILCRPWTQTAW
Experimental: To evaluate in radioligand binding assays the activity of compounds of the invention, human recombinant adrenergic α2B receptor expressed in Chinese hamster ovary (CHO) K1 cells (Uhlen, S. et al, Eur. J. Pharmacol. 343(1):93, 1998) in a modified Tris-HCl buffer (50 mM Tris-HCl, pH 7.4, 12.5 mM MgCl2, 1 mM EDTA, 0.2% BSA) was used. Compounds of the invention were incubated with 2.5 nM [3H]Rauwolscine for 60 min at 25° C. Non-specific binding was estimated in the presence of 10 μM Prazosin. Receptor proteins were filtered and washed, the filters were then counted to determine [3H]Rauwolscine specifically bound. Compounds were screened at 1 μM or lower, using 1% DMSO as vehicle. Compounds of the invention were tested in this biochemical assay and percent inhibition of specific binding was determined. Biochemical assay results are presented as the percent inhibition of specific binding in Tables B1A-B1D.

[3] = target: T2, human recombinant adrenergic α1D receptor (Homo sapiens, UniProt P25100); assay: Adrenergic α1D radioligand binding assay ([3H]Prazosin)
T2 construct: expressed in transfected cells; host or cells: HEK-293 cells
T2 sequence (P25100 1-572): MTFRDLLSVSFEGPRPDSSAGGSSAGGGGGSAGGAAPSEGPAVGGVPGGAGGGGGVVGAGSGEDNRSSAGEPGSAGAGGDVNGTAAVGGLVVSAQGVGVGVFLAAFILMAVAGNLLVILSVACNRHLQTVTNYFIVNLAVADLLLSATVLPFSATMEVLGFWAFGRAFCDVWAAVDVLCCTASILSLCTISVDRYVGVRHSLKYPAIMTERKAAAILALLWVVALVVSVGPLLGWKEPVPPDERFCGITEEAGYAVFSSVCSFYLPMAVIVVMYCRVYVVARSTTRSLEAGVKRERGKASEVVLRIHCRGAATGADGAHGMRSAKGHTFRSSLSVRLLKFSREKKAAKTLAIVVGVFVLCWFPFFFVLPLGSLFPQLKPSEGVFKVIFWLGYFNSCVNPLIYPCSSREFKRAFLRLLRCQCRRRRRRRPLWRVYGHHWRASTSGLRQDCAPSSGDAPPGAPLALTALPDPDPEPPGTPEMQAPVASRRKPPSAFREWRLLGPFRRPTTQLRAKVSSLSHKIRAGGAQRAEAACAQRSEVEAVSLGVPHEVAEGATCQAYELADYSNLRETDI
Experimental: To evaluate in radioligand binding assays the activity of compounds of the invention, human recombinant adrenergic α1D receptor expressed in human embryonic kidney (HEK-293) cells (Kenny, B. et al, Br. J. Pharmacol. 115(6):981, 1995) in a 50 mM Tris-HCl buffer, pH 7.4, was used. Compounds were incubated with 0.6 nM [3H]Prazosin for 60 min at 25° C. Non-specific binding was estimated in the presence of 10 μM phentolamine. Receptor proteins were filtered and washed, the filters were then counted to determine [3H]Prazosin specifically bound. Compounds were screened at 1 μM or lower, using 1% DMSO as vehicle. Biochemical assay results are presented as the percent inhibition of specific binding in Tables B1A-B1D.

[4] = target: T3, human recombinant adrenergic α2A receptor (Homo sapiens, UniProt P08913); assay: Adrenergic α2A radioligand binding assay ([3H]MK-912); details: for Percentage inhibition of ligand binding, Adrenergic α2A: 0.1 µM
T3 construct: expressed in transfected cells; host or cells: insect Sf9 cells
T3 sequence (P08913 1-465): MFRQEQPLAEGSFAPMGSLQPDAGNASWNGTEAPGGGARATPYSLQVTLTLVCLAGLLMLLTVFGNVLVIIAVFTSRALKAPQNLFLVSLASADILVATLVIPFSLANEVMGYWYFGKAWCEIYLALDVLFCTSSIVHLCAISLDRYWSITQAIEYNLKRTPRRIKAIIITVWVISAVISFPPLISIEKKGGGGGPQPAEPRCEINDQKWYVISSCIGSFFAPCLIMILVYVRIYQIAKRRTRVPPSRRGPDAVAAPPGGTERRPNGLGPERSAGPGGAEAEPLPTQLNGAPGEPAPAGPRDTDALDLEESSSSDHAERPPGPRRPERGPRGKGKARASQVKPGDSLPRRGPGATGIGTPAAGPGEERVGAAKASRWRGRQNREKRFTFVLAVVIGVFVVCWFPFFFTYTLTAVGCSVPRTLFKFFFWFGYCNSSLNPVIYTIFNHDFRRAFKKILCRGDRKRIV
Experimental: To evaluate in radioligand binding assays the activity of compounds of the invention, human recombinant adrenergic α2A receptor expressed in insect Sf9 cells (Uhlen, S. et al, J. Pharmacol. Exp. Ther. 271:1558, 1994) in a modified Tris-HCl buffer (50 mM Tris-HCl, pH 7.4, 12.5 mM MgCl2, 2 mM EDTA) was used. Compounds of invention were incubated with 1 nM [^3H]MK-912 for 60 min at 25° C. MK912 was (2S-trans)-1,3,4,5′,6,6′,7,12b-octahydro-1′,3′-dimethyl-spiro[2H-benzofuro[2,3-a]quinolizine-2,4′(1′H)-pyrimidin]-2′(3′H)-one hydrochloride Non-specific binding was estimated in the presence of 10 μM WB-4101 (2-(2,6-Dimethoxyphenoxyethyl)aminomethyl-1,4-benzodioxane hydrochloride). Receptor proteins were filtered and washed, the filters were then counted to determine [^3H]MK-912 specifically bound. Compounds were screened at 1 μM or lower, using 1% DMSO as vehicle. Compounds of the invention were tested in this biochemical assay and percent inhibition of specific binding was determined. Biochemical assay results are presented as the percent inhibition of specific binding in Tables B1A-B1D.

[5] = target: T4, rat adrenergic α1B receptor obtained from Wistar Rat liver (Rattus norvegicus, UniProt P15823); assay: Adrenergic α1B radioligand binding assay ([3H]Prazosin); details: 0.1 μM compound; for Percentage inhibition of ligand binding, Adrenergic α1B: 0.1 µM
T4 construct: rat adrenergic α1B receptor obtained from Wistar Rat liver; from tissue; host or cells: Wistar rat liver
T4 sequence (P15823 1-515): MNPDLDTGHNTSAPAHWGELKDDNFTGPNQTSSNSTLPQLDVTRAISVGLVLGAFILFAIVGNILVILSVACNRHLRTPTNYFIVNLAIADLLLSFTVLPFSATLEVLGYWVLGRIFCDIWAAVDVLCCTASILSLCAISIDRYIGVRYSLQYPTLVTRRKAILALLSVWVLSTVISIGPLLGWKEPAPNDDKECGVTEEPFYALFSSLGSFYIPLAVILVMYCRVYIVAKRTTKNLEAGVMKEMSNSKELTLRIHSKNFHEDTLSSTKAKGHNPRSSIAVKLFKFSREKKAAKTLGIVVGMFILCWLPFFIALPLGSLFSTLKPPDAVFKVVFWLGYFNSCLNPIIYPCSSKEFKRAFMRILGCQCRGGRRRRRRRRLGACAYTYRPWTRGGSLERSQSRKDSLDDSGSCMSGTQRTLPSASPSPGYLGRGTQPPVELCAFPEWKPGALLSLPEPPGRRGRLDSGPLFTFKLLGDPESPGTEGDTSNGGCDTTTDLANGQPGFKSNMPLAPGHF
Experimental: To evaluate in radioligand binding assays the activity of compounds of the invention, rat adrenergic α1B receptor obtained from Wistar Rat liver (Garcia-S'ainz, J. et al, Biochem. Biophys. Res. Commun. 186:760, 1992; Michel, A. et al, Br. J. Pharmacol. 98:883, 1989) in a modified Tris-HCl buffer (50 mM Tris-HCl buffer, pH 7.4, 0.5 mM EDTA) was used. Compounds of the invention were incubated with 0.25 nM [^3H]Prazosin for 60 min at 25° C. Non-specific binding was estimated in the presence of 10 μM phentolamine. Receptor proteins were filtered and washed, the filters were then counted to determine [^3H]Prazosin specifically bound. Compounds were screened at 1 μM or lower, using 1% DMSO as vehicle. Compounds of the invention were tested in this biochemical assay and percent inhibition of specific binding was determined. Biochemical assay results are presented as the percent inhibition of specific binding in Tables B1A-B1D.

[6] = read-out: Percentage inhibition of ligand binding, Adrenergic α2B

Structure (SMILES): Cc1ccc2c(c1)c1c(n2C)C(C)(CCc2ccccc2)CN(C)C1 (stereo not drawn) [C44]
Relative Cytoprotective capacity [1]: −0.6342

Structure (SMILES): Cc1ccc2c(c1)c1c(n2C)C(C)(CCc2ccc(C)nc2)CN(C)C1 (stereo not drawn) [C45]
Relative Cytoprotective capacity [1]: 4.348

Structure (SMILES): Cc1cc2c(-c3ccccc3)cn3c4c(c(c1)c23)CN(C)CC4 [B211]
inhibition at 0.1 µM [2, 6]: 82%

Structure (SMILES): Cc1ccc(C2Cn3c4c(c5cccc2c53)CN(C)CC4)cn1 (stereo not drawn) [B210]
inhibition at 0.1 µM [2, 6]: 14%

Structure (SMILES): Cc1cc(CC(O)c2ccncc2)c2c(c1)c1c(n2C)CCN(C)C1 (stereo not drawn) [A44]
inhibition at 0.03 µM ([2]; 0.03 μM compound, read-out: Percentage inhibition of ligand binding, Adrenergic α2B): 31%
inhibition at 0.1 µM ([5]; read-out: Percentage inhibition of ligand binding, Adrenergic α1B): -3%
inhibition at 0.1 µM ([4]; 0.1 μM compound, read-out: Percentage inhibition of ligand binding, Adrenergic α2A): -5%

More lines, now with the values ahead:

inhibition at 1 µM ([3]; 1 μM compound, read-out: Percentage inhibition of ligand binding, Adrenergic α1D): 28%
inhibition at 1 µM ([2]; 1 μM compound, read-out: Percentage inhibition of ligand binding, Adrenergic α2B): 47%
inhibition at 1 µM ([4]; 1 μM compound, read-out: Percentage inhibition of ligand binding, Adrenergic α2A): 15%
Structure (SMILES): Cc1cc2c3c(c1)c1c(n3CC(c3ccc(C)nc3)C2)CCN(C)C1 (stereo not drawn) [B1]

Percentage inhibition of ligand binding, Adrenergic α1D ([3]; 0.1 μM compound, 0.1 µM): 2%
Percentage inhibition of ligand binding, Adrenergic α2B [2]: 16%
Percentage inhibition of ligand binding, Adrenergic α1B [5]: 12%
Percentage inhibition of ligand binding, Adrenergic α2A ([4]; 0.1 μM compound): 6%
Structure (SMILES): Cc1cc2c3c(c1)c1c(n3CC(C)(c3ccc(C)nc3)OC2C)CCN(C)C1 (stereo not drawn) [B164]

inhibition at 0.1 µM ([3]; 0.1 μM compound, read-out: Percentage inhibition of ligand binding, Adrenergic α1D): 1%
Percentage inhibition of ligand binding, Adrenergic α2B [2]: 7%
Percentage inhibition of ligand binding, Adrenergic α1B [5]: 2%
Percentage inhibition of ligand binding, Adrenergic α2A ([4]; 0.1 μM compound): 13%
Structure (SMILES): Cc1cc2c3c(c1)c1c(n3CC(C)(c3ccc(C)nc3)OC2C)CCN(C)C1 (stereo not drawn) [B161]
